Experimental data taken from paper PMC10046369, “Low-Affinity/High-Selectivity Dopamine Transport Inhibition Sufficient to Rescue Cognitive Functions in the Aging Rat” (Biomolecules, 2023).

Tests used:
Assay in all cases: biochemical
Design in all cases: KINOMEscan competition binding panel, per cent of control
Details in all cases: read-out: %Ctrl @ 2800nM
[1] = biological target: T1, LZK (Homo sapiens, UniProt O43283)
T1 construct: gene MAP3K13
Method in brief: (§1)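 Competition binding panel (KINOMEscan) across 450 human kinases and disease-relevant mutants, run to the contractor's standard protocol. Values are % control: (test signal − positive control signal)/(negative control signal − positive control signal) × 100, with lower values indicating stronger binding.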

[2] = biological target: GRK2 (Homo sapiens, UniProt P25098)
Method in brief: as §1

[3] = biological target: PAK1 (Homo sapiens, UniProt Q13153)
Method in brief: as §1

[4] = biological target: FLT1 (Homo sapiens, UniProt P17948)
Method in brief: as §1

[5] = biological target: T2, ABL1(E255K)-phosphorylated (Homo sapiens, UniProt P00519, E255K)
T2 construct: phosphorylated
Method in brief: as §1

[6] = biological target: BRAF(V600E) (Homo sapiens, UniProt P15056, V600E)
Chain of BRAF(V600E) (P15056 whole entry V600E): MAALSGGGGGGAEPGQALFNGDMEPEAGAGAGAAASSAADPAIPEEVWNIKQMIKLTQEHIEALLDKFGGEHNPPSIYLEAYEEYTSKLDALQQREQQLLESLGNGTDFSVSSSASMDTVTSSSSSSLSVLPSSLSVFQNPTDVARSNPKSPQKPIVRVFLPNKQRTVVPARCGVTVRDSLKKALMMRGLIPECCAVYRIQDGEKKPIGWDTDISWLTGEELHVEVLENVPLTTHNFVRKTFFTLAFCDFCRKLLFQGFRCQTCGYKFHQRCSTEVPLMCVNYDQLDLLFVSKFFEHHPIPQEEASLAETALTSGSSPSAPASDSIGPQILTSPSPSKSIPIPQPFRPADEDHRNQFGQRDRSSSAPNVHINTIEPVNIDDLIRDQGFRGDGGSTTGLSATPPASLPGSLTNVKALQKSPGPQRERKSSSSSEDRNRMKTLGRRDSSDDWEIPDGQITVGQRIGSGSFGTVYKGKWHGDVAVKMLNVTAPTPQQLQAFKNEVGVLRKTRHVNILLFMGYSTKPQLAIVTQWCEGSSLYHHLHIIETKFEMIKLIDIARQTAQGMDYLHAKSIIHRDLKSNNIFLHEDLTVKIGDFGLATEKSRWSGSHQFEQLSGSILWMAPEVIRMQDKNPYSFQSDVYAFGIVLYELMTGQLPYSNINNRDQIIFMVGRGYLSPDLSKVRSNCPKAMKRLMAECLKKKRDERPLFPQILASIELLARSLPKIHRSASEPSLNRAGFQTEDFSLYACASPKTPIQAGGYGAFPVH
Method in brief: as §1

[7] = biological target: PRKD3 (Homo sapiens, UniProt O94806)
Method in brief: as §1

[8] = biological target: SLK (Homo sapiens, UniProt Q9H2G2)
Chain of SLK (Q9H2G2 whole entry): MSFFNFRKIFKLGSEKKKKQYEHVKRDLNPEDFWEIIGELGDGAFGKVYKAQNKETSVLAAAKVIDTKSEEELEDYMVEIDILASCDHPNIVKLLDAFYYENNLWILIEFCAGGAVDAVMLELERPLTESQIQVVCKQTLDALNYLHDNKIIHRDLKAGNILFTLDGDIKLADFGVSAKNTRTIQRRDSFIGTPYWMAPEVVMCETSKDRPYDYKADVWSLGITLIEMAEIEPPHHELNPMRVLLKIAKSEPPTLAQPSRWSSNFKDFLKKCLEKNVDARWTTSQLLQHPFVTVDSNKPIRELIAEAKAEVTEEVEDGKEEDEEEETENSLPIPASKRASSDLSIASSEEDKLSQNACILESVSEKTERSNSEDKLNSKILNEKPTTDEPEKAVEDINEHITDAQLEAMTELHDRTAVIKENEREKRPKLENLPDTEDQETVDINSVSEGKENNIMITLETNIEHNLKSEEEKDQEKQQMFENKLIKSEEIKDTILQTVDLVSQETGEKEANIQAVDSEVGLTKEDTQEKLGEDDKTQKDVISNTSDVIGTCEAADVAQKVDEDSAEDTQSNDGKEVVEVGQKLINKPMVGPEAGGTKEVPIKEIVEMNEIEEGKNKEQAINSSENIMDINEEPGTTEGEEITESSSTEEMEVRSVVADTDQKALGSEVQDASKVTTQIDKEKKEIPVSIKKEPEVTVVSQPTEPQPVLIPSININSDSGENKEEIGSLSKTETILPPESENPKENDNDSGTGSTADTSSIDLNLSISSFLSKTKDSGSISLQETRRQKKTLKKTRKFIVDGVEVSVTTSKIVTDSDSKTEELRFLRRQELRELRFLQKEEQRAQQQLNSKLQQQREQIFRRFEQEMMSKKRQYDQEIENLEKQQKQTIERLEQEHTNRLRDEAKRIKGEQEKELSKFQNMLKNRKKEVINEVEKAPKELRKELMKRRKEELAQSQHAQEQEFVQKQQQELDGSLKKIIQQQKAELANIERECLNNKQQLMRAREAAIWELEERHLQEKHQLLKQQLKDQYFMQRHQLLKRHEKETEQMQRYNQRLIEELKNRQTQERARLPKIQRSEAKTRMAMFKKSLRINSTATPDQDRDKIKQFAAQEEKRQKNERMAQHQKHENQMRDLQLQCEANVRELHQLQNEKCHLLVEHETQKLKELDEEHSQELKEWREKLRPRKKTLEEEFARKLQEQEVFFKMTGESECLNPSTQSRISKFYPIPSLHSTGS
Method in brief: as §1

[9] = biological target: DAPK1 (Homo sapiens, UniProt P53355)
Chain of DAPK1 (P53355 whole entry): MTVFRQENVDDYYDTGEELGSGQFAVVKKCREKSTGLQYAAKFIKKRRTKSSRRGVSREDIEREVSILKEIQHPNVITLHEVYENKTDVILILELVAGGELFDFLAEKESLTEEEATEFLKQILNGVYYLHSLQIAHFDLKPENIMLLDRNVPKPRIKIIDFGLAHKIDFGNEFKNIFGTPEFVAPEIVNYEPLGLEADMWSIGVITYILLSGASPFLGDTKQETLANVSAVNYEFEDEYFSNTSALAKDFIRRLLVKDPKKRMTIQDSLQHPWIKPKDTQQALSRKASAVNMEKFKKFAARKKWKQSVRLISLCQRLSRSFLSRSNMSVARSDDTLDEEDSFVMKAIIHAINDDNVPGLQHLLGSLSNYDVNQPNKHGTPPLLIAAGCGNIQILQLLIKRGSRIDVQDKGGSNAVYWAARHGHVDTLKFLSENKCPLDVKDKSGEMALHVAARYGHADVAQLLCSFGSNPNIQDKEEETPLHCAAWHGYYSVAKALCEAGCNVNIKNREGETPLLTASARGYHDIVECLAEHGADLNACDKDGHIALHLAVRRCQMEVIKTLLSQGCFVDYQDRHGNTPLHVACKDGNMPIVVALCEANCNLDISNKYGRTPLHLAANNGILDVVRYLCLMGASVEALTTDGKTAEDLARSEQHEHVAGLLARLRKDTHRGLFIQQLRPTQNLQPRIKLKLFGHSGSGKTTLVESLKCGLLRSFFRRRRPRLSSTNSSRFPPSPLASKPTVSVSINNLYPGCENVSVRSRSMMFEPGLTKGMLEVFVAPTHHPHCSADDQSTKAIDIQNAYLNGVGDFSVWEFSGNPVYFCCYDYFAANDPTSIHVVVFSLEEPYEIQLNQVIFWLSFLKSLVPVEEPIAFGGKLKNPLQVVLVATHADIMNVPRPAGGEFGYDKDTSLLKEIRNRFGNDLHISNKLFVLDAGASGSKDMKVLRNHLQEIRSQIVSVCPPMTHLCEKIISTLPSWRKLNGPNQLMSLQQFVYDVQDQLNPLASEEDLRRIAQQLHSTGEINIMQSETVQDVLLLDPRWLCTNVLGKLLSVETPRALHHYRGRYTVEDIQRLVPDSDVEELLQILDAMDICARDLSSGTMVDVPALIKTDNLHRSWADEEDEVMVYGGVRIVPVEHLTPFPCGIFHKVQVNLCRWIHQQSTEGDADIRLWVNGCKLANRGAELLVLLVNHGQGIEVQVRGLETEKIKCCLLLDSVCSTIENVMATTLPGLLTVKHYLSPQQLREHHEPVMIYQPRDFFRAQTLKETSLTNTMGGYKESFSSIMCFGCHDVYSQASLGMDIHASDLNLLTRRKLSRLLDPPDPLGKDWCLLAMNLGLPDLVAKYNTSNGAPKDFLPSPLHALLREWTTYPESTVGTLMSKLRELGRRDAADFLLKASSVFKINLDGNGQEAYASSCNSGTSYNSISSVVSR
Method in brief: as §1

[10] = biological target: T3, NIM1 (Homo sapiens, UniProt Q8IY84)
T3 construct: gene NIM1K
Method in brief: as §1

[11] = biological target: T4, IKK-alpha (Homo sapiens, UniProt O15111)
T4 construct: gene CHUK
Method in brief: as §1

[12] = biological target: PIK3CA(H1047L) (Homo sapiens, UniProt P42336, H1047L)
Method in brief: as §1

[13] = biological target: EGFR(L861Q) (Homo sapiens, UniProt P00533, L861Q)
Method in brief: as §1

[14] = biological target: EGFR(T790M) (Homo sapiens, UniProt P00533, T790M)
Method in brief: as §1

[15] = biological target: BRAF (Homo sapiens, UniProt P15056)
Chain of BRAF (P15056 whole entry): as the sequence (P15056 whole entry V600E) above, with E600V counted along it
Method in brief: as §1

[16] = biological target: MAP3K2 (Homo sapiens, UniProt Q9Y2U5)
Method in brief: as §1

[17] = biological target: MKNK1 (Homo sapiens, UniProt Q9BUB5)
Method in brief: as §1

[18] = biological target: CSNK1A1 (Homo sapiens, UniProt P48729)
Method in brief: as §1

[19] = biological target: CLK3 (Homo sapiens, UniProt P49761)
Chain of CLK3 (P49761 whole entry): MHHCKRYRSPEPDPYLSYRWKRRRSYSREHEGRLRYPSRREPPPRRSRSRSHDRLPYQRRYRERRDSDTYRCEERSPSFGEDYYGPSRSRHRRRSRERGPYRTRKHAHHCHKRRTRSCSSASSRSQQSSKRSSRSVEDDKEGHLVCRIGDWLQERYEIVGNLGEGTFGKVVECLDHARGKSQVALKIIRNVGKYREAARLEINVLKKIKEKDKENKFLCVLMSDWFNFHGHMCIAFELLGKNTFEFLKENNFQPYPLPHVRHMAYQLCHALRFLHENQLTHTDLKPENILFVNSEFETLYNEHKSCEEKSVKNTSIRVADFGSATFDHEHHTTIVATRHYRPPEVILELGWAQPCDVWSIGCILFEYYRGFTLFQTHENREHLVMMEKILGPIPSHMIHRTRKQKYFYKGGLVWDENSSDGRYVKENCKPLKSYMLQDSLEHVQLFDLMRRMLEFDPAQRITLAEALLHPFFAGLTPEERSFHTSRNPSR
Method in brief: as §1

[20] = biological target: KIT (Homo sapiens, UniProt P10721)
Method in brief: as §1

[21] = biological target: T5, MST2 (Homo sapiens, UniProt Q13188)
T5 construct: gene STK3
T5 sequence (Q13188 whole entry): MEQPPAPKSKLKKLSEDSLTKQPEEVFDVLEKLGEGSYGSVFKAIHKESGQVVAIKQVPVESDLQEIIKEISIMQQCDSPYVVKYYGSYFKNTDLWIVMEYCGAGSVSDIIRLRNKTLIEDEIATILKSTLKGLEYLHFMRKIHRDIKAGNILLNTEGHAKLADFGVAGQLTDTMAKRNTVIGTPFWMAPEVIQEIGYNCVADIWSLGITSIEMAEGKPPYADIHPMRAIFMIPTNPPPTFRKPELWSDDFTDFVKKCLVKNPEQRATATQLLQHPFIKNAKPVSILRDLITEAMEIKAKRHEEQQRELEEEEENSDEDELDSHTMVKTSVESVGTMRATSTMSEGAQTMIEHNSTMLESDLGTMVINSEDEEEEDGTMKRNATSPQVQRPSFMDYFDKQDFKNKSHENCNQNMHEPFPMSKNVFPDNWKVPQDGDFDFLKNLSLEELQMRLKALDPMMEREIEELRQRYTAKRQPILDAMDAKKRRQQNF
Method in brief: as §1

[22] = biological target: ACVRL1 (Homo sapiens, UniProt P37023)
Chain of ACVRL1 (P37023 whole entry): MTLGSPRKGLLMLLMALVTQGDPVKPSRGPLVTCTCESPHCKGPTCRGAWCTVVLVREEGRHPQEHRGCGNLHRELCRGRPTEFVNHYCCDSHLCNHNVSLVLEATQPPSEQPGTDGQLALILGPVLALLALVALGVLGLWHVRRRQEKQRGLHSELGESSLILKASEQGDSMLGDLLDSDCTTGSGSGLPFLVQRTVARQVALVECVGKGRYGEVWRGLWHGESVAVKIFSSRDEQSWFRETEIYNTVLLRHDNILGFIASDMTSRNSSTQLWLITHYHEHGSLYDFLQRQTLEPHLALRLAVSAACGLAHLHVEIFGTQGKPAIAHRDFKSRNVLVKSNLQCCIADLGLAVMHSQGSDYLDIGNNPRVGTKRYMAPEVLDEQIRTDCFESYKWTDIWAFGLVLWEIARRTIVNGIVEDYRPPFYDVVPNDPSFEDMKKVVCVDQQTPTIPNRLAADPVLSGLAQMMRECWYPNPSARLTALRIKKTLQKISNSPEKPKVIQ
Method in brief: as §1

[23] = biological target: KIT(D816V) (Homo sapiens, UniProt P10721, D816V)
Method in brief: as §1

[24] = biological target: MAPKAPK2 (Homo sapiens, UniProt P49137)
Method in brief: as §1

[25] = biological target: PIK3CA(M1043I) (Homo sapiens, UniProt P42336, M1043I)
Method in brief: as §1

[26] = biological target: T6, CDK4-cyclinD3 (Homo sapiens, UniProt P11802)
T6 construct: cyclinD3
Method in brief: as §1

## [O-][S@@+](Cc1cncs1)C(c1ccccc1)c1ccccc1 [S-CE-123, (S)-5-((Benzhydrylsulfinyl)Methyl)Thiazole]
[1]
  remaining binding at 2.8 µM: 94%
[2]
  remaining binding at 2.8 µM: 100%
[3]
  remaining binding at 2.8 µM: 92%
[4]
  remaining binding at 2.8 µM: 100%
[5]
  remaining binding at 2.8 µM: 73%
[6]
  remaining binding at 2.8 µM: 100%
[7]
  remaining binding at 2.8 µM: 96%
[8]
  remaining binding at 2.8 µM: 100%
[9]
  remaining binding at 2.8 µM: 91%
[10]
  remaining binding at 2.8 µM: 97%
[11]
  remaining binding at 2.8 µM: 100%
[12]
  remaining binding at 2.8 µM: 100%
[13]
  remaining binding at 2.8 µM: 98%
[14]
  remaining binding at 2.8 µM: 98%
[15]
  remaining binding at 2.8 µM: 100%
[16]
  remaining binding at 2.8 µM: 100%
[17]
  remaining binding at 2.8 µM: 96%
[18]
  remaining binding at 2.8 µM: 74%
[19]
  remaining binding at 2.8 µM: 95%
[20]
  remaining binding at 2.8 µM: 97%
[21]
  remaining binding at 2.8 µM: 80%
[22]
  remaining binding at 2.8 µM: 84%
[23]
  remaining binding at 2.8 µM: 97%
[24]
  remaining binding at 2.8 µM: 99%
[25]
  remaining binding at 2.8 µM: 63%
[26]
  remaining binding at 2.8 µM: 85%
